# Values of other authors, collected in patent US20220192199A1, “METHOD FOR REMOVING BIOFILM” (KAO CORPORATION, priority 2019, published 2022).
# Conditions: primary dissociation constant
row,Structure (SMILES),pKa1
1,O=C(O)CCO [3-hydoxypropionic acid],4.5
2,O=C(O)[C@H](O)[C@@H](O)[C@H](O)[C@H](O)CO [gluconic acid],3.86
